From patent publication US20230278972A1, “SUBSTITUTED HALOALKYL SULFONANILIDE HERBICIDES” (FMC Corporation, priority 2020, published 2023)

Tests used:
Assay type in all cases: in vivo
[1] = tested on: blackgrass (Alopecurus myosuroides); assay: Test A1 preemergence, blackgrass
Procedure, shortened: (§1)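 Plants grown in pots of loam/sand mix; preemergence = soil-directed spray on seeded pots, postemergence = spray at 1–2 leaves, height 2–10 cm; test chemicals formulated in non-phytotoxic solvent with surfactant.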

corn (Zea mays) [2] = assay: Test A1 preemergence, corn
Procedure, shortened: (§2)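 Plants were grown in a loam soil/sand blend, with test chemicals formulated in a non-phytotoxic solvent mixture containing surfactant. Preemergence treatment (corn) was a directed soil spray at planting. Postemergence treatment was applied to plants 2 to 10 cm tall at the one- to two-leaf stage.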

[3] = tested on: Foxtail, Giant (giant foxtail, Setaria faberi); assay: Test A1 preemergence, Foxtail, Giant
Procedure, shortened: as §1

[4] = tested on: goosegrass (Eleusine indica); assay: Test A1 preemergence, goosegrass
Procedure, shortened: as §1

kochia (Bassia scoparia) [5] = assay: Test A1 preemergence, kochia
Procedure, shortened: as §1

[6] = tested on: Oat, Wild (wild oat, Avena fatua); assay: Test A1 preemergence, Oat, Wild
Procedure, shortened: as §1

[7] = tested on: Pigweed, Palmer (palmer amaranth, palmer pigweed, Amaranthus palmeri); assay: Test A1 preemergence, Pigweed, Palmer
Procedure, shortened: as §1

[8] = tested on: ragweed (common ragweed, Ambrosia artemisiifolia); assay: Test A1 preemergence, ragweed
Procedure, shortened: as §1

[9] = tested on: Ryegrass, Italian (Italian ryegrass, Lolium multiflorum); assay: Test A1 preemergence, Ryegrass, Italian
Procedure, shortened: as §1

soybean (Glycine max) [10] = assay: Test A1 preemergence, soybean
Procedure, shortened: as §1

[11] = tested on: wheat (Triticum aestivum); assay: Test A1 preemergence, wheat
Procedure, shortened: as §1

[12] = tested on: blackgrass (Alopecurus myosuroides); assay: Test A1 postemergence, blackgrass; conditions: Postemergence, 0 to 100 scale (0 no effect, 100 complete control)
Procedure, shortened: as §1

corn (Zea mays) [13] = assay: Test A1 postemergence, corn; conditions: Postemergence
Procedure, shortened: as §1

[14] = tested on: Foxtail, Giant (giant foxtail, Setaria faberi); assay: Test A1 postemergence, Foxtail, Giant; conditions: Postemergence
Procedure, shortened: as §1

[15] = tested on: goosegrass (Eleusine indica); assay: Test A1 postemergence, goosegrass; conditions: Postemergence
Procedure, shortened: as §1

kochia (Bassia scoparia) [16] = assay: Test A1 postemergence, kochia; conditions: Postemergence
Procedure, shortened: as §1

[17] = tested on: Oat, Wild (wild oat, Avena fatua); assay: Test A1 postemergence, Oat, Wild; conditions: Postemergence
Procedure, shortened: as §2

[18] = tested on: Pigweed, Palmer (palmer amaranth, palmer pigweed, Amaranthus palmeri); assay: Test A1 postemergence, Pigweed, Palmer; conditions: Postemergence
Procedure, shortened: as §2

[19] = tested on: ragweed (common ragweed, Ambrosia artemisiifolia); assay: Test A1 postemergence, ragweed; conditions: Postemergence
Procedure, shortened: as §2

[20] = tested on: Ryegrass, Italian (Italian ryegrass, Lolium multiflorum); assay: Test A1 postemergence, Ryegrass, Italian; conditions: Postemergence
Procedure, shortened: as §1

soybean (Glycine max) [21] = assay: Test A1 postemergence, soybean; conditions: Postemergence
Procedure, shortened: as §1

[22] = tested on: wheat (Triticum aestivum); assay: Test A1 postemergence, wheat; conditions: Postemergence
Procedure, shortened: as §1

[23] = tested on: galium (catchweed bedstraw, Galium aparine); assay: Test A1 postemergence, galium; conditions: Postemergence
Procedure, shortened: as §1

[24] = tested on: horseweed (Erigeron canadensis); assay: Test A1 postemergence, horseweed; conditions: Postemergence
Procedure, shortened: as §1

[25] = tested on: barnyardgrass (Echinochloa crus-galli); assay: Test B1 flooded paddy test, barnyardgrass; conditions: 250 g ai/ha, Flood, applied to paddy water, 2-leaf stage, visually evaluated after 10 to 14 days
Description: (§3) A dash (-) response means no test result.

[26] = tested on: ducksalad (Heteranthera limosa); assay: Test B1 flooded paddy test, ducksalad; conditions: 250 g ai/ha, Flood, applied to paddy water, 2-leaf stage, visually evaluated after 10 to 14 days
Description: as §3

rice (Oryza sativa) = assay: Test B1 flooded paddy test, rice; conditions: 250 g ai/ha, Flood, applied to paddy water, 2-leaf stage, visually evaluated after 10 to 14 days
Description: as §3

[27] = 31 g ai/ha, 0 to 100 scale (0 no effect, 100 complete control)
[28] = 125 g ai/ha, 0 to 100 scale, 0 no effect, 100 complete control
[29] = 31 g ai/ha, 0 to 100 scale (0 no effect, 100 complete control), 10 days

SMILES: Cc1cc(C)c(N(COC(=O)OC(C)C)S(=O)(=O)C(F)(F)F)cc1C1=NOC2CCCC12 (stereo not drawn) [Compound 314]
- Plant response rating, Blackgrass [1, 27]: 0
- Plant response rating, Blackgrass [1, 28]: 20
- Plant response rating, Corn (corn (Zea mays) [2]; [27]): 10
- Plant response rating, Corn (corn (Zea mays) [2]; [28]): 40
- Plant response rating, Foxtail, Giant [3, 27]: 30
- Plant response rating, Foxtail, Giant [3, 28]: 90
- Plant response rating, Goosegrass [4, 27]: 80
- Plant response rating, Goosegrass [4, 28]: 90
- Plant response rating, Kochia (kochia (Bassia scoparia) [5]; [27]): 0
- Plant response rating, Kochia (kochia (Bassia scoparia) [5]; [28]): 70
- Plant response rating, Oat, Wild [6, 27]: 0
- Plant response rating, Oat, Wild [6, 28]: 0
- Plant response rating, Pigweed, Palmer [7, 27]: 70
- Plant response rating, Pigweed, Palmer [7, 28]: 70
- Plant response rating, Ragweed [8, 27]: 0
- Plant response rating, Ragweed [8, 28]: 60
- Plant response rating, Ryegrass, Italian [9, 27]: 40
- Plant response rating, Ryegrass, Italian [9, 28]: 90
- Plant response rating, Soybean (soybean (Glycine max) [10]; [27]): 20
- Plant response rating, Soybean (soybean (Glycine max) [10]; [28]): 40
- Plant response rating, Wheat [11, 27]: 0
- Plant response rating, Wheat [11, 28]: 50
- Plant response rating, Blackgrass ([12]; 31 g ai/ha, 10 days): 0
- Plant response rating, Blackgrass ([12]; 125 g ai/ha): 10
- Plant response rating, Corn (corn (Zea mays) [13]; [29]): 0
- Plant response rating, Corn (corn (Zea mays) [13]; 125 g ai/ha, 0 to 100 scale): 30
- Plant response rating, Foxtail, Giant [14, 29]: 10
- Plant response rating, Foxtail, Giant ([14]; 125 g ai/ha, 0 to 100 scale): 30
- Plant response rating, Goosegrass [15, 29]: 60
- Plant response rating, Goosegrass ([15]; 125 g ai/ha, 0 to 100 scale): 80
- Plant response rating, Kochia (kochia (Bassia scoparia) [16]; [29]): 30
- Plant response rating, Kochia (kochia (Bassia scoparia) [16]; 125 g ai/ha, 0 to 100 scale): 70
- Plant response rating, Oat, Wild [17, 29]: 0
- Plant response rating, Oat, Wild ([17]; 125 g ai/ha, 0 to 100 scale): 10
- Plant response rating, Pigweed, Palmer [18, 29]: 10
- Plant response rating, Pigweed, Palmer ([18]; 125 g ai/ha, 0 to 100 scale): 60
- Plant response rating, Ragweed [19, 29]: 0
- Plant response rating, Ragweed ([19]; 125 g ai/ha, 0 to 100 scale): 70
- Plant response rating, Ryegrass, Italian [20, 29]: 10
- Plant response rating, Ryegrass, Italian ([20]; 125 g ai/ha, 0 to 100 scale): 70
- Plant response rating, Soybean (soybean (Glycine max) [21]; [29]): 40
- Plant response rating, Soybean (soybean (Glycine max) [21]; 125 g ai/ha, 0 to 100 scale): 50
- Plant response rating, Wheat [22, 29]: 50
- Plant response rating, Wheat ([22]; 125 g ai/ha, 0 to 100 scale): 70
- Plant response rating, Galium [23, 29]: 60
- Plant response rating, Galium ([23]; 125 g ai/ha, 0 to 100 scale): 70
- Plant response rating, Horseweed [24, 29]: 0
- Plant response rating, Horseweed ([24]; 125 g ai/ha, 0 to 100 scale): 50
- Plant response rating, Barnyardgrass (0 to 100 scale, 0 is no effect, 100 is complete control) [25]: 98
- Plant response rating, Ducksalad (0 to 100 scale, 0 is no effect, 100 is complete control) [26]: 90
- Plant response rating, Rice (0 to 100 scale, 0 is no effect, 100 is complete control) (rice (Oryza sativa)): 25

SMILES: COCC1CC(c2cc(NS(=O)(=O)C(F)(F)F)c(C)cc2C)=NO1 (stereo not drawn) [Compound 319]
- Plant response rating, Blackgrass [1, 27]: 30
- Plant response rating, Blackgrass [1, 28]: 50
- Plant response rating, Corn (corn (Zea mays) [2]; [27]): 40
- Plant response rating, Corn (corn (Zea mays) [2]; [28]): 90
- Plant response rating, Foxtail, Giant [3, 27]: 90
- Plant response rating, Foxtail, Giant [3, 28]: 100
- Plant response rating, Goosegrass [4, 27]: 90
- Plant response rating, Goosegrass [4, 28]: 90
- Plant response rating, Kochia (kochia (Bassia scoparia) [5]; [27]): 0
- Plant response rating, Kochia (kochia (Bassia scoparia) [5]; [28]): 40
- Plant response rating, Oat, Wild [6, 27]: 60
- Plant response rating, Oat, Wild [6, 28]: 70
- Plant response rating, Pigweed, Palmer [7, 27]: 70
- Plant response rating, Pigweed, Palmer [7, 28]: 80
- Plant response rating, Ragweed [8, 27]: 0
- Plant response rating, Ragweed [8, 28]: 70
- Plant response rating, Ryegrass, Italian [9, 27]: 50
- Plant response rating, Ryegrass, Italian [9, 28]: 90
- Plant response rating, Soybean (soybean (Glycine max) [10]; [27]): 20
- Plant response rating, Soybean (soybean (Glycine max) [10]; [28]): 30
- Plant response rating, Wheat [11, 27]: 80
- Plant response rating, Wheat [11, 28]: 100
- Plant response rating, Blackgrass ([12]; 31 g ai/ha, 10 days): 0
- Plant response rating, Blackgrass ([12]; 125 g ai/ha): 10
- Plant response rating, Corn (corn (Zea mays) [13]; [29]): 10
- Plant response rating, Corn (corn (Zea mays) [13]; 125 g ai/ha, 0 to 100 scale): 80
- Plant response rating, Foxtail, Giant [14, 29]: 40
- Plant response rating, Foxtail, Giant ([14]; 125 g ai/ha, 0 to 100 scale): 90
- Plant response rating, Goosegrass [15, 29]: 70
- Plant response rating, Goosegrass ([15]; 125 g ai/ha, 0 to 100 scale): 90
- Plant response rating, Kochia (kochia (Bassia scoparia) [16]; [29]): 40
- Plant response rating, Kochia (kochia (Bassia scoparia) [16]; 125 g ai/ha, 0 to 100 scale): 80
- Plant response rating, Oat, Wild [17, 29]: 0
- Plant response rating, Oat, Wild ([17]; 125 g ai/ha, 0 to 100 scale): 10
- Plant response rating, Pigweed, Palmer [18, 29]: 0
- Plant response rating, Pigweed, Palmer ([18]; 125 g ai/ha, 0 to 100 scale): 50
- Plant response rating, Ragweed [19, 29]: 30
- Plant response rating, Ragweed ([19]; 125 g ai/ha, 0 to 100 scale): 60
- Plant response rating, Ryegrass, Italian [20, 29]: 30
- Plant response rating, Ryegrass, Italian ([20]; 125 g ai/ha, 0 to 100 scale): 50
- Plant response rating, Soybean (soybean (Glycine max) [21]; [29]): 20
- Plant response rating, Soybean (soybean (Glycine max) [21]; 125 g ai/ha, 0 to 100 scale): 50
- Plant response rating, Wheat [22, 29]: 70
- Plant response rating, Wheat ([22]; 125 g ai/ha, 0 to 100 scale): 70
- Plant response rating, Galium [23, 29]: 40
- Plant response rating, Galium ([23]; 125 g ai/ha, 0 to 100 scale): 70
- Plant response rating, Horseweed [24, 29]: 10
- Plant response rating, Horseweed ([24]; 125 g ai/ha, 0 to 100 scale): 40
- Plant response rating, Barnyardgrass (0 to 100 scale, 0 is no effect, 100 is complete control) [25]: 90
- Plant response rating, Ducksalad (0 to 100 scale, 0 is no effect, 100 is complete control) [26]: 85
- Plant response rating, Rice (0 to 100 scale, 0 is no effect, 100 is complete control) (rice (Oryza sativa)): 30
